# According to PubChem BioAssay (NCI):
#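 How tested: cells in 96-well plates exposed to compound for 48 hours at five concentrations. TGI: concentration producing complete growth inhibition.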
# Experiments:
# Assay in all cases: NCI anticancer screen, dose series, 48 h
# 786-0 renal = system: 786-0 renal
# A498 renal = system: A498 renal
# A549 NSCLC = system: A549 NSCLC
# ACHN renal = system: ACHN renal
# BT-549 breast = system: BT-549 breast
# CCRF-CEM leukemia = system: CCRF-CEM leukemia
# DU-145 prostate = system: DU-145 prostate
# EKVX NSCLC = system: EKVX NSCLC
# HCC-2998 colon = system: HCC-2998 colon
# HCT-116 colon = system: HCT-116 colon
# HCT-15 colon = system: HCT-15 colon
# HL-60(TB) leukemia = system: HL-60(TB) leukemia
# HOP-62 NSCLC = system: HOP-62 NSCLC
# HOP-92 NSCLC = system: HOP-92 NSCLC
# HS 578T breast = system: HS 578T breast
# HT29 colon = system: HT29 colon
# IGROV1 ovarian = system: IGROV1 ovarian
# K-562 leukemia = system: K-562 leukemia
# KM12 colon = system: KM12 colon
# LOX IMVI melanoma = system: LOX IMVI melanoma
# M14 melanoma = system: M14 melanoma
# MCF7 breast = system: MCF7 breast
# MDA-MB-231 breast = system: MDA-MB-231 breast
# MDA-MB-435 = system: MDA-MB-435
# MDA-N = system: MDA-N
# MOLT-4 leukemia = system: MOLT-4 leukemia
# NCI-H226 lung = system: NCI-H226 lung
# NCI-H23 lung = system: NCI-H23 lung
# NCI-H460 lung = system: NCI-H460 lung
# OVCAR-3 ovarian = system: OVCAR-3 ovarian
# OVCAR-5 ovarian = system: OVCAR-5 ovarian
# OVCAR-8 ovarian = system: OVCAR-8 ovarian
# PC-3 prostate = system: PC-3 prostate
# RPMI-8226 leukemia = system: RPMI-8226 leukemia
# RXF 393 renal = system: RXF 393 renal
# SF-268 CNS = system: SF-268 CNS
# SF-295 CNS = system: SF-295 CNS
# SF-539 CNS = system: SF-539 CNS
# SK-MEL-2 melanoma = system: SK-MEL-2 melanoma
# SK-MEL-28 melanoma = system: SK-MEL-28 melanoma
# SK-MEL-5 melanoma = system: SK-MEL-5 melanoma
# SK-OV-3 ovarian = system: SK-OV-3 ovarian
# SN12C renal = system: SN12C renal
# SNB-19 CNS = system: SNB-19 CNS
# SNB-75 CNS = system: SNB-75 CNS
# SR leukemia = system: SR leukemia
# SW-620 colon = system: SW-620 colon
# T-47D breast = system: T-47D breast
# TK-10 renal = system: TK-10 renal
# U251 CNS = system: U251 CNS
# UACC-257 melanoma = system: UACC-257 melanoma
# UACC-62 melanoma = system: UACC-62 melanoma
# UO-31 renal = system: UO-31 renal
# COLO 205 colon = system: COLO 205 colon
# MALME-3M melanoma = system: MALME-3M melanoma
# NCI-H522 lung = system: NCI-H522 lung
# NCI/ADR-RES ovarian = system: NCI/ADR-RES ovarian
# OVCAR-4 ovarian = system: OVCAR-4 ovarian
compound,measurement,setting,value
CC1(C)CN=CC(C)(OCc2ccccc2)C(=O)NC(C)(C)CN=CC(C)(OCc2ccccc2)C(=O)N1 (centres undefined),TGI,786-0 renal,> 10 µM
same,TGI,A498 renal,> 10 µM
same,TGI,A549 NSCLC,> 10 µM
same,TGI,ACHN renal,> 10 µM
same,TGI,BT-549 breast,> 10 µM
same,TGI,CCRF-CEM leukemia,> 10 µM
same,TGI,DU-145 prostate,> 10 µM
same,TGI,EKVX NSCLC,> 10 µM
same,TGI,HCC-2998 colon,> 10 µM
same,TGI,HCT-116 colon,> 10 µM
same,TGI,HCT-15 colon,> 10 µM
same,TGI,HL-60(TB) leukemia,> 10 µM
same,TGI,HOP-62 NSCLC,> 10 µM
same,TGI,HOP-92 NSCLC,0.808 µM
same,TGI,HS 578T breast,> 10 µM
same,TGI,HT29 colon,> 10 µM
same,TGI,IGROV1 ovarian,> 10 µM
same,TGI,K-562 leukemia,> 10 µM
same,TGI,KM12 colon,> 10 µM
same,TGI,LOX IMVI melanoma,> 10 µM
same,TGI,M14 melanoma,> 10 µM
same,TGI,MCF7 breast,> 10 µM
same,TGI,MDA-MB-231 breast,> 10 µM
same,TGI,MDA-MB-435,> 10 µM
same,TGI,MDA-N,> 10 µM
same,TGI,MOLT-4 leukemia,> 10 µM
same,TGI,NCI-H226 lung,> 10 µM
same,TGI,NCI-H23 lung,> 10 µM
same,TGI,NCI-H460 lung,> 10 µM
same,TGI,OVCAR-3 ovarian,> 10 µM
same,TGI,OVCAR-5 ovarian,> 10 µM
same,TGI,OVCAR-8 ovarian,> 10 µM
same,TGI,PC-3 prostate,> 10 µM
same,TGI,RPMI-8226 leukemia,> 10 µM
same,TGI,RXF 393 renal,> 10 µM
same,TGI,SF-268 CNS,> 10 µM
same,TGI,SF-295 CNS,> 10 µM
same,TGI,SF-539 CNS,> 10 µM
same,TGI,SK-MEL-2 melanoma,> 10 µM
same,TGI,SK-MEL-28 melanoma,> 10 µM
same,TGI,SK-MEL-5 melanoma,> 10 µM
same,TGI,SK-OV-3 ovarian,> 10 µM
same,TGI,SN12C renal,> 10 µM
same,TGI,SNB-19 CNS,> 10 µM
same,TGI,SNB-75 CNS,> 10 µM
same,TGI,SR leukemia,> 10 µM
same,TGI,SW-620 colon,> 10 µM
same,TGI,T-47D breast,> 10 µM
same,TGI,TK-10 renal,> 10 µM
same,TGI,U251 CNS,> 10 µM
same,TGI,UACC-257 melanoma,> 10 µM
same,TGI,UACC-62 melanoma,> 10 µM
same,TGI,UO-31 renal,> 10 µM
CC[C@H]1CN(C)[C@H]2Cc3c([nH]c4ccccc34)C(=O)C[C@H]1C2C(=O)OC (some centres undefined),TGI,786-0 renal,> 100 µM
same,TGI,A498 renal,> 100 µM
same,TGI,A549 NSCLC,> 100 µM
same,TGI,ACHN renal,> 100 µM
same,TGI,BT-549 breast,> 100 µM
same,TGI,CCRF-CEM leukemia,> 100 µM
same,TGI,COLO 205 colon,> 100 µM
same,TGI,DU-145 prostate,> 100 µM
same,TGI,EKVX NSCLC,> 100 µM
same,TGI,HCC-2998 colon,> 100 µM
same,TGI,HCT-116 colon,> 100 µM
same,TGI,HCT-15 colon,> 100 µM
same,TGI,HL-60(TB) leukemia,> 100 µM
same,TGI,HOP-62 NSCLC,> 100 µM
same,TGI,HOP-92 NSCLC,> 100 µM
same,TGI,HS 578T breast,> 100 µM
same,TGI,HT29 colon,> 100 µM
same,TGI,IGROV1 ovarian,> 100 µM
same,TGI,KM12 colon,> 100 µM
same,TGI,LOX IMVI melanoma,> 100 µM
same,TGI,M14 melanoma,> 100 µM
same,TGI,MALME-3M melanoma,> 100 µM
same,TGI,MCF7 breast,> 100 µM
same,TGI,MDA-MB-231 breast,> 100 µM
same,TGI,MDA-MB-435,> 100 µM
same,TGI,MDA-N,> 100 µM
same,TGI,MOLT-4 leukemia,> 100 µM
same,TGI,NCI-H226 lung,> 100 µM
same,TGI,NCI-H23 lung,> 100 µM
same,TGI,NCI-H460 lung,> 100 µM
same,TGI,NCI-H522 lung,> 100 µM
same,TGI,NCI/ADR-RES ovarian,> 100 µM
same,TGI,OVCAR-3 ovarian,> 100 µM
same,TGI,OVCAR-4 ovarian,> 100 µM
same,TGI,OVCAR-5 ovarian,> 100 µM
same,TGI,OVCAR-8 ovarian,> 100 µM
same,TGI,PC-3 prostate,> 100 µM
same,TGI,RPMI-8226 leukemia,> 100 µM
same,TGI,RXF 393 renal,> 100 µM
same,TGI,SF-268 CNS,> 100 µM
same,TGI,SF-295 CNS,> 100 µM
same,TGI,SF-539 CNS,> 100 µM
same,TGI,SK-MEL-2 melanoma,> 100 µM
same,TGI,SK-MEL-28 melanoma,> 100 µM
same,TGI,SK-MEL-5 melanoma,> 100 µM
same,TGI,SK-OV-3 ovarian,> 100 µM
same,TGI,SN12C renal,> 100 µM
same,TGI,SNB-19 CNS,> 100 µM
same,TGI,SR leukemia,> 100 µM
same,TGI,SW-620 colon,> 100 µM
same,TGI,T-47D breast,> 100 µM
same,TGI,TK-10 renal,> 100 µM
same,TGI,U251 CNS,> 100 µM
same,TGI,UACC-257 melanoma,> 100 µM
same,TGI,UACC-62 melanoma,> 100 µM
same,TGI,UO-31 renal,> 100 µM
